Counter-ions that a name gives are not always drawn.
Assays:
Human PDE10A enzyme = target: T1, Human PDE10A enzyme (Homo sapiens, UniProt Q9Y233); assay: PDE enzyme inhibition (SPA, [3H]cGMP); type: biochemical; conditions: 1 μM compound, [3H]cGMP substrate
T1 construct: Sf9 or COS-7 cells transfected with the full-length gene; His-tag; made in house; host or cells: Sf9 or COS-7 cells
Experimental: Human PDE10A enzyme was generated from Sf9 or COS-7 cells transfected with the full-length gene. Cloned enzyme was extracted from homogenized cell pellets. The extracted enzyme from sf9 cells was partially purified using His-tag affinity column. The enzyme was stored at −70° C. until use. PDE activity was measured using a SPA (Scintillation Proximity Assay) (GE Healthcare). To evaluate the inhibitory activity, 10 μL of serial diluted compounds were incubated with 20 μL of PDE enzyme in assay buffer (50 mM HEPES-NaOH, 8.3 mM MgCl2, 1.7 mM EGTA, 0.1% BSA (pH 7.4)) for 30 min. at room temperature. Final concentration of DMSO in the assay was 1 percent as compounds were tested in duplicate in 96-well half-area plates (Corning). To start the reaction, 10 μL of substrate [^3H] cGMP (25 or 50 nM; enclosed in SPA kits from GE Healthcare or purchased from PerkinElmer, respectively) was added for a final assay volume of 40 μL. After 60 min incubation at room temperature, yttrium SPA beads containing Zinc sulphate were added (20 μL at 6 mg/mL) to terminate the PDE reaction. After being settled for 60 min, assay plates were counted in a scintillation counter (PerkinElmer) to allow calculation of inhibition rate. Inhibition rate was calculated on the basis of 0% control wells with DMSO and 100% control wells without enzyme.

T1 sequence (Q9Y233 267-1055): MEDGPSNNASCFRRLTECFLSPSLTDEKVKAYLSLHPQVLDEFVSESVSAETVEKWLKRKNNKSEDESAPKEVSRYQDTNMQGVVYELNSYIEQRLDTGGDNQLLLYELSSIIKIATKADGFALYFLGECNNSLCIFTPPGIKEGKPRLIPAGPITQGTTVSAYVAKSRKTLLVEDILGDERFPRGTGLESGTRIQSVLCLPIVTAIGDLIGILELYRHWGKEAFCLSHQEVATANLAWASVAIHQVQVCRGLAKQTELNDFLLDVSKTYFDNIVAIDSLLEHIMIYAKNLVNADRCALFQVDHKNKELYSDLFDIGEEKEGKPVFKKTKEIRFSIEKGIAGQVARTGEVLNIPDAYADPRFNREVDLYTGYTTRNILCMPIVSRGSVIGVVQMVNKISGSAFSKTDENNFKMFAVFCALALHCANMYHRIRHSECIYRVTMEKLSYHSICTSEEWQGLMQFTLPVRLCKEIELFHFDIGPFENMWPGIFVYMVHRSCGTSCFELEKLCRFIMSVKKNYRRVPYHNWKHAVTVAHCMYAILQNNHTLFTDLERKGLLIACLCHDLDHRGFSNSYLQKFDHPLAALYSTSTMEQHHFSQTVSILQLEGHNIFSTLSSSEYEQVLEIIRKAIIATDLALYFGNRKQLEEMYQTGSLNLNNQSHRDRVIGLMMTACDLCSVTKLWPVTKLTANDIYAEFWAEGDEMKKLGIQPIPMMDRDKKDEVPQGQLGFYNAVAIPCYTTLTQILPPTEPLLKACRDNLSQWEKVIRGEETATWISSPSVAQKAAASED

| melting point | inhibition at 1 µM (Human PDE10A enzyme) [%] | SMILES |
| --- | --- | --- |
| 152 to 153 °C | 99 | CCn1nc(-c2ccc(Oc3nc4ccccc4n3CC(C)(C)O)cc2)c2ncccc21 [Example 36, 1-{2-[4-(1-Ethyl-1H-pyrazolo[4,3-b]pyridin-3-yl)phenoxy]-1H-benzimidazol-1-yl}-2-methylpropan-2-ol] |
| 176 to 177 °C |  | CCn1nc(-c2ccc(Oc3nc4cccnc4n3C)cc2)c2ncccc21 [Example 14, 1-Ethyl-3-{4-[(3-methyl-3H-imidazo[4,5-b]pyridin-2-yl)oxy]phenyl}-1H-pyrazolo[4,3-b]pyridine] |
|  | 102 | Cn1c(Oc2ccc(-c3nn(CC(F)F)c4cccnc34)cc2)nc2cccnc21 [Example 39, 1-(2,2-Difluoroethyl)-3-{4-[(3-methyl-3H-imidazo[4,5-b]pyridin-2-yl)oxy]phenyl}-1H-pyrazolo[4,3-b]pyridine] |
|  | 102 | Cn1c(Oc2ccc(-c3nn(CC(F)F)c4cc(F)cnc34)cc2)nc2cccnc21 [Example 51] |
|  | 101 | COCCn1c(Oc2ccc(-c3nn(CC(F)F)c4cccnc34)cc2)nc2cccnc21 [Example 52, 1-(2,2-Difluoroethyl)-3-(4-{[3-(2-methoxyethyl)-3H-imidazo[4,5-b]pyridin-2-yl]oxy}phenyl)-1H-pyrazolo[4,3-b]pyridine] |
|  | 93 | COCCn1c(Oc2ccc(-c3nn(C(C)C)c4cccnc34)cc2)nc2cccnc21 [Example 35] |
|  | 99 | CCn1nc(-c2ccc(C3CCn4c3nc3ccccc34)cc2)c2ncccc21 (centres unmarked) [Example 24, 3-[4-(1-Ethyl-1H-pyrazolo[4,3-b]pyridin-3-yl)phenyl]-2,3-dihydro-1H-pyrrolo[1,2-a]benzimidazole] |
|  | 101 | CC(C)n1nc(-c2ccc(Oc3nc4cccnc4n3C)cc2)c2ncc(F)cc21 [Example 40, 6-Fluoro-1-(1-methylethyl)-3-{4-[(3-methyl-3H-imidazo[4,5-b]pyridin-2-yl)oxy]phenyl}-1H-pyrazolo[4,3-b]pyridine] |
|  | 107 | Cn1nc(-c2ccc(Oc3nc4cccnc4n3C)cc2)c2ncccc21 [Example 44, 1-Methyl-3-{4-[(3-methyl-3H-imidazo[4,5-b]pyridin-2-yl)oxy]phenyl}-1H-pyrazolo[4,3-b]pyridine] |
|  | 104 | CCn1nc(-c2ccc(Oc3nc4cccnc4n3CCOC)cc2)c2ncc(F)cc21 [Example 48, 1-Ethyl-6-fluoro-3-(4-{[3-(2-methoxyethyl)-3H-imidazo[4,5-b]pyridin-2-yl]oxy}phenyl)-1H-pyrazolo[4,3-b]pyridine] |
|  | 95 | Cn1nc(-c2ccc(Oc3nc4cccnc4n3C)cc2)c2ncc(F)cc21 [Example 45, 6-Fluoro-1-methyl-3-{4-[(3-methyl-3H-imidazo[4,5-b]pyridin-2-yl)oxy]phenyl}-1H-pyrazolo[4,3-b]pyridine] |
| 161 to 162 °C | 101 | CCn1nc(-c2ccc(Oc3nc4cccnc4n3C)cc2)c2nccnc21 [Example 28, 1-Ethyl-3-{4-[(3-methyl-3H-imidazo[4,5-b]pyridin-2-yl)oxy]phenyl}-1H-pyrazolo[3,4-b]pyrazine] |
| 264 °C (dec.) | 103 | c1ccc2[nH]c(Oc3ccc(-c4c5n(c6cccnc46)CCCC5)cc3)nc2c1 [Example 13, 10-[4-(1H-Benzimidazol-2-yloxy)phenyl]-6,7,8,9-tetrahydropyrido[2,3-b]indolizine] |
| 163 to 164 °C | 100 | CC(C)n1nc(-c2ccc(Oc3nc4cccnc4n3C)cc2)c2ncccc21 [Example 18, 1-(1-Methylethyl)-3-{4-[(3-methyl-3H-imidazo[4,5-b]pyridin-2-yl)oxy]phenyl}-1H-pyrazolo[4,3-b]pyridine] |
|  | 100 | COCCn1c(Oc2ccc(-c3nn(C)c4cc(F)cnc34)cc2)nc2cccnc21 [Example 50, 6-Fluoro-3-(4-{[3-(2-methoxyethyl)-3H-imidazo[4,5-b]pyridin-2-yl]oxy}phenyl)-1-methyl-1H-pyrazolo[4,3-b]pyridine] |
|  | 105 | CCn1nc(-c2ccc(Oc3nc4cccnc4n3CCOC)cc2)c2ncccc21 [Example 34, 1-Ethyl-3-(4-{[3-(2-methoxyethyl)-3H-imidazo[4,5-b]pyridin-2-yl]oxy}phenyl)-1H-pyrazolo[4,3-b]pyridine] |
| 183 to 184 °C |  | CCn1nc(-c2ccc(Oc3nc4ccccc4n3CCO)cc2)c2ncccc21 [Example 29, 2-{2-[4-(1-Ethyl-1H-pyrazolo[4,3-b]pyridin-3-yl)phenoxy]-1H-benzimidazol-1-yl}ethanol] |
|  | 103 | COCCn1c(Oc2ccc(-c3nn(CC(F)F)c4cc(F)cnc34)cc2)nc2cccnc21 [Example 49, 1-(2,2-Difluoroethyl)-6-fluoro-3-(4-{[3-(2-methoxyethyl)-3H-imidazo[4,5-b]pyridin-2-yl]oxy}phenyl)-1H-pyrazolo[4,3-b]pyridine] |
|  | 98.7 | CCn1nc(-c2ccc(Oc3nc4ccccc4n3C)cc2)c2ncccc21 [Example 4, 1-Ethyl-3-{4-[(1-methyl-1H-benzimidazol-2-yl)oxy]phenyl}-1H-pyrazolo[4,3-b]pyridine] |
|  | 97.6 | Cn1cc(-c2ccc(Nc3nc4ccccc4o3)cc2)c2ncccc21 [Example 1, N-[4-(1-Methyl-1H-pyrrolo[3,2-b]pyridin-3-yl)phenyl]-1,3-benzoxazol-2-amine hydrochloride] |
|  | 97.7 | CCn1nc(-c2ccc(Oc3nc4ccccc4[nH]3)cc2)c2ncccc21 [Example 3, 3-[4-(1H-Benzimidazol-2-yloxy)phenyl]-1-ethyl-1H-pyrazolo[4,3-b]pyridine] |
|  | 100 | CCn1nc(-c2ccc(Oc3cn4ccccc4n3)cc2)c2ncccc21 [Example 8, 1-Ethyl-3-[4-(imidazo[1,2-a]pyridin-2-yloxy)phenyl]-1H-pyrazolo[4,3-b]pyridine hydrochloride] |
|  | 95 | CCn1nc(-c2ccc(C(=O)c3nc4ccccc4n3C)cc2)c2ncccc21 [Example 6, [4-(1-Ethyl-1H-pyrazolo[4,3-b]pyridin-3-yl)phenyl] (1-methyl-1H-benzimidazol-2-yl)methanone] |
|  | 101 | CCn1nc(-c2ccc3c(c2)CCN3c2nc3ccccc3[nH]2)c2ncccc21 [Example 7, 3-[1-(1H-Benzimidazol-2-yl)-2,3-dihydro-1H-indol-5-yl]-1-ethyl-1H-pyrazolo[4,3-b]pyridine] |
|  | 99 | CCn1nc(-c2ccc(Oc3nc4ccccc4[nH]3)nc2)c2ncccc21 [Example 10, 3-[6-(1H-Benzimidazol-2-yloxy)pyridin-3-yl]-1-ethyl-1H-pyrazolo[4,3-b]pyridine] |
|  | 101 | CCn1nc(-c2ccc(Oc3nc4cccnc4n3C)cc2)c2ncc(F)cc21 [Example 37, 1-Ethyl-6-fluoro-3-{4-[(3-methyl-3H-imidazo[4,5-b]pyridin-2-yl)oxy]phenyl}-1H-pyrazolo[4,3-b]pyridine] |
| 218 to 220 °C | 103 | CCn1nc(-c2ccc(Oc3nc4cccnc4n3C)cc2)c2ncncc21 [Example 38, 1-Ethyl-3-{4-[(3-methyl-3H-imidazo[4,5-b]pyridin-2-yl)oxy]phenyl}-1H-pyrazolo[4,3-d]pyrimidine] |
